{"source": "PubChem BioAssay AID1259407", "about": "(Chemical Carcinogenesis Research Information System (CCRIS), 2018)", "tested_on": "CCRIS mutagenicity, Ames/micronucleus/aberration tests", "assay": "CCRIS mutagenicity studies", "key": {"[1]": {"settings": "Test System: AMES SALMONELLA TYPHIMURIUM, Strain/Indicator: TA98, Metabolic Activation: HAMSTER, LIVER, S-9, AROCLOR 1254 (10%), Method: PREINCUBATION"}, "[2]": {"settings": "Test System: AMES SALMONELLA TYPHIMURIUM, Strain/Indicator: TA98, Metabolic Activation: RAT, LIVER, S-9, AROCLOR 1254 (10%), Method: PREINCUBATION"}, "[3]": {"settings": "Test System: AMES SALMONELLA TYPHIMURIUM, Strain/Indicator: TA100, Metabolic Activation: HAMSTER, LIVER, S-9, AROCLOR 1254 (10%), Method: PREINCUBATION"}, "[4]": {"settings": "Test System: AMES SALMONELLA TYPHIMURIUM, Strain/Indicator: TA100, Metabolic Activation: NONE, Method: PREINCUBATION"}, "[5]": {"settings": "Test System: AMES SALMONELLA TYPHIMURIUM, Strain/Indicator: TA100, Metabolic Activation: RAT, LIVER, S-9, AROCLOR 1254 (10%), Method: PREINCUBATION"}, "[6]": {"settings": "Test System: AMES SALMONELLA TYPHIMURIUM, Strain/Indicator: TA1535, Metabolic Activation: HAMSTER, LIVER, S-9, AROCLOR 1254 (10%), Method: PREINCUBATION"}, "[7]": {"settings": "Test System: AMES SALMONELLA TYPHIMURIUM, Strain/Indicator: TA1535, Metabolic Activation: NONE, Method: PREINCUBATION"}, "[8]": {"settings": "Test System: AMES SALMONELLA TYPHIMURIUM, Strain/Indicator: TA1535, Metabolic Activation: RAT, LIVER, S-9, AROCLOR 1254 (10%), Method: PREINCUBATION"}, "[9]": {"settings": "Test System: AMES SALMONELLA TYPHIMURIUM, Strain/Indicator: TA1537, Metabolic Activation: HAMSTER, LIVER, S-9, AROCLOR 1254 (10%), Method: PREINCUBATION"}, "[10]": {"settings": "Test System: AMES SALMONELLA TYPHIMURIUM, Strain/Indicator: TA1537, Metabolic Activation: NONE, Method: PREINCUBATION"}, "[11]": {"settings": "Test System: AMES SALMONELLA TYPHIMURIUM, Strain/Indicator: TA1537, Metabolic Activation: RAT, LIVER, S-9, AROCLOR 1254 (10%), Method: PREINCUBATION"}, "[12]": {"settings": "Test System: AMES SALMONELLA TYPHIMURIUM, Strain/Indicator: TA98, Metabolic Activation: NONE, Method: PREINCUBATION"}}, "note": "The source made the active and inactive calls. No rule for the calls is given here.", "data": [{"compound": "O=C(Cl)c1ccc([N+](=O)[O-])cc1", "values": [{"measurement": "mutagenic call", "setting": "End Point: In vitro chromosomal aberrations, Test System: Chinese hamster lung (CHL/IU) cells, Metabolic Activation: None", "value": "inactive; negative. precipitation observed in culture medium at all doses tested."}, {"measurement": "mutagenic call", "setting": "End Point: In vitro chromosomal aberrations, Test System: Chinese hamster lung (CHL/IU) cells, Metabolic Activation: Rat, Liver, S9, Phenobarbital and 5,6-benzoflavone", "value": "inactive; negative. precipitation observed in culture medium at all doses tested."}, {"measurement": "mutagenic call", "setting": "[1]", "value": "active; positive"}, {"measurement": "mutagenic call", "setting": "Test System: AMES SALMONELLA TYPHIMURIUM, Strain/Indicator: TA98, Metabolic Activation: HAMSTER, LIVER, S-9, AROCLOR 1254, Method: STANDARD PLATE", "value": "inactive; negative"}, {"measurement": "mutagenic call", "setting": "Test System: AMES SALMONELLA TYPHIMURIUM, Strain/Indicator: TA98, Metabolic Activation: NONE, Method: STANDARD PLATE", "value": "inactive; negative"}, {"measurement": "mutagenic call", "setting": "[2]", "value": "active; positive"}, {"measurement": "mutagenic call", "setting": "Test System: AMES SALMONELLA TYPHIMURIUM, Strain/Indicator: TA98, Metabolic Activation: RAT, LIVER, S-9, AROCLOR 1254, Method: STANDARD PLATE", "value": "inactive; negative"}, {"measurement": "mutagenic call", "setting": "Test System: AMES SALMONELLA TYPHIMURIUM, Strain/Indicator: TA98, Metabolic Activation: RAT, LIVER, S-9, KANECHLOR 500, Method: PREINCUBATION", "value": "inactive; negative"}, {"measurement": "mutagenic call", "setting": "[3]", "value": "active; positive"}, {"measurement": "mutagenic call", "setting": "Test System: AMES SALMONELLA TYPHIMURIUM, Strain/Indicator: TA100, Metabolic Activation: HAMSTER, LIVER, S-9, AROCLOR 1254, Method: STANDARD PLATE", "value": "inactive; negative"}, {"measurement": "mutagenic call", "setting": "[4]", "value": "active; positive"}, {"measurement": "mutagenic call", "setting": "Test System: AMES SALMONELLA TYPHIMURIUM, Strain/Indicator: TA100, Metabolic Activation: NONE, Method: STANDARD PLATE", "value": "inactive; negative"}, {"measurement": "mutagenic call", "setting": "[5]", "value": "active; positive"}, {"measurement": "mutagenic call", "setting": "Test System: AMES SALMONELLA TYPHIMURIUM, Strain/Indicator: TA100, Metabolic Activation: RAT, LIVER, S-9, AROCLOR 1254, Method: STANDARD PLATE", "value": "inactive; negative"}, {"measurement": "mutagenic call", "setting": "Test System: AMES SALMONELLA TYPHIMURIUM, Strain/Indicator: TA100, Metabolic Activation: RAT, LIVER, S-9, KANECHLOR 500, Method: PREINCUBATION", "value": "active; positive"}, {"measurement": "mutagenic call", "setting": "[6]", "value": "active; positive"}, {"measurement": "mutagenic call", "setting": "Test System: AMES SALMONELLA TYPHIMURIUM, Strain/Indicator: TA1535, Metabolic Activation: HAMSTER, LIVER, S-9, AROCLOR 1254, Method: STANDARD PLATE", "value": "inactive; negative"}, {"measurement": "mutagenic call", "setting": "[7]", "value": "active; positive"}, {"measurement": "mutagenic call", "setting": "Test System: AMES SALMONELLA TYPHIMURIUM, Strain/Indicator: TA1535, Metabolic Activation: NONE, Method: STANDARD PLATE", "value": "inactive; negative"}, {"measurement": "mutagenic call", "setting": "[8]", "value": "active; positive"}, {"measurement": "mutagenic call", "setting": "Test System: AMES SALMONELLA TYPHIMURIUM, Strain/Indicator: TA1535, Metabolic Activation: RAT, LIVER, S-9, AROCLOR 1254, Method: STANDARD PLATE", "value": "inactive; negative"}, {"measurement": "mutagenic call", "setting": "[9]", "value": "active; positive"}, {"measurement": "mutagenic call", "setting": "Test System: AMES SALMONELLA TYPHIMURIUM, Strain/Indicator: TA1537, Metabolic Activation: HAMSTER, LIVER, S-9, AROCLOR 1254, Method: STANDARD PLATE", "value": "inactive; negative"}, {"measurement": "mutagenic call", "setting": "[10]", "value": "active; positive"}, {"measurement": "mutagenic call", "setting": "Test System: AMES SALMONELLA TYPHIMURIUM, Strain/Indicator: TA1537, Metabolic Activation: NONE, Method: STANDARD PLATE", "value": "inactive; negative"}, {"measurement": "mutagenic call", "setting": "[11]", "value": "active; positive"}, {"measurement": "mutagenic call", "setting": "Test System: AMES SALMONELLA TYPHIMURIUM, Strain/Indicator: TA1537, Metabolic Activation: RAT, LIVER, S-9, AROCLOR 1254, Method: STANDARD PLATE", "value": "inactive; negative"}, {"measurement": "mutagenic call", "setting": "Test System: AMES SALMONELLA TYPHIMURIUM, Strain/Indicator: TA1538, Metabolic Activation: HAMSTER, LIVER, S-9, AROCLOR 1254, Method: STANDARD PLATE", "value": "inactive; negative"}, {"measurement": "mutagenic call", "setting": "Test System: AMES SALMONELLA TYPHIMURIUM, Strain/Indicator: TA1538, Metabolic Activation: NONE, Method: STANDARD PLATE", "value": "inactive; negative"}, {"measurement": "mutagenic call", "setting": "Test System: AMES SALMONELLA TYPHIMURIUM, Strain/Indicator: TA1538, Metabolic Activation: RAT, LIVER, S-9, AROCLOR 1254, Method: STANDARD PLATE", "value": "inactive; negative"}, {"measurement": "mutagenic call", "setting": "Test System: Ames Salmonella typhimurium, Strain/Indicator: TA100, Metabolic Activation: Rat, Liver, S9, Sodium phenobarbital and 5,6-benzoflavone (10%), Method: Preincubation", "value": "active; positive"}, {"measurement": "mutagenic call", "setting": "Test System: Ames Salmonella typhimurium, Strain/Indicator: TA1535, Metabolic Activation: None, Method: Preincubation", "value": "active; positive"}, {"measurement": "mutagenic call", "setting": "Test System: Ames Salmonella typhimurium, Strain/Indicator: TA1535, Metabolic Activation: Rat, Liver, S9, Sodium phenobarbital and 5,6-benzoflavone (10%), Method: Preincubation", "value": "active; positive"}, {"measurement": "mutagenic call", "setting": "Test System: Ames Salmonella typhimurium, Strain/Indicator: TA1537, Metabolic Activation: None, Method: Preincubation", "value": "inactive; negative"}, {"measurement": "mutagenic call", "setting": "Test System: Ames Salmonella typhimurium, Strain/Indicator: TA1537, Metabolic Activation: Rat, Liver, S9, Sodium phenobarbital and 5,6-benzoflavone (10%), Method: Preincubation", "value": "inactive; negative"}, {"measurement": "mutagenic call", "setting": "Test System: E. coli, Strain/Indicator: WP2uvrA/pKM101, Metabolic Activation: None, Method: Preincubation", "value": "inactive; negative"}, {"measurement": "mutagenic call", "setting": "Test System: E. coli, Strain/Indicator: WP2uvrA/pKM101, Metabolic Activation: Rat, Liver, S9, Sodium phenobarbital and 5,6-benzoflavone (10%), Method: Preincubation", "value": "inactive; negative"}, {"measurement": "mutagenic call", "setting": "Test System: MOUSE LYMPHOMA, Strain/Indicator: L5178Y (TK+/TK-), Metabolic Activation: NONE, Method: SUSPENSION/PLATE", "value": "inactive; negative. reevaluation of results: negative"}, {"measurement": "mutagenic call", "setting": "Test System: MOUSE LYMPHOMA, Strain/Indicator: L5178Y (TK+/TK-), Metabolic Activation: RAT, LIVER, S-9, AROCLOR 1254, Method: SUSPENSION/PLATE", "value": "inactive; negative. reevaluation of results: negative"}]}, {"compound": "CC(C)NC(=O)/C=C/c1ccc([N+](=O)[O-])o1", "values": [{"measurement": "mutagenic call", "setting": "[12]", "value": "active; positive"}, {"measurement": "mutagenic call", "setting": "Test System: CHINESE HAMSTER V-79, Strain/Indicator: V-79/6-THIOGUANINE, Metabolic Activation: NONE, Method: STANDARD PLATE", "value": "active; positive"}]}, {"compound": "CC(C)N", "values": [{"measurement": "mutagenic call", "setting": "[1]", "value": "inactive; negative"}, {"measurement": "mutagenic call", "setting": "[12]", "value": "inactive; negative"}, {"measurement": "mutagenic call", "setting": "[2]", "value": "inactive; negative"}, {"measurement": "mutagenic call", "setting": "[3]", "value": "inactive; negative"}, {"measurement": "mutagenic call", "setting": "[4]", "value": "inactive; negative"}, {"measurement": "mutagenic call", "setting": "[5]", "value": "inactive; negative"}, {"measurement": "mutagenic call", "setting": "[6]", "value": "inactive; negative"}, {"measurement": "mutagenic call", "setting": "[7]", "value": "inactive; negative"}, {"measurement": "mutagenic call", "setting": "[8]", "value": "inactive; negative"}, {"measurement": "mutagenic call", "setting": "[9]", "value": "inactive; negative"}, {"measurement": "mutagenic call", "setting": "[10]", "value": "inactive; negative"}, {"measurement": "mutagenic call", "setting": "[11]", "value": "inactive; negative"}, {"measurement": "mutagenic call", "setting": "Test System: UDS RODENT HEPATOCYTES, Strain/Indicator: THY INCORP (NON-S-PHASE), Metabolic Activation: NONE, Method: LIQUID SCINTILLATION COUNTING", "value": "inactive; negative"}]}]}
